Where two headings read alike, the source gives them in different places.
Columns and labels:
[1] = biological target: TGFBR2 (Homo sapiens, UniProt P37173); test: biochemical; design: Eurofins DiscoverX kinase panel, competitive binding assay at 1 uM, percent of DMSO control; settings: competitive binding, percent of DMSO control
Method in brief: (§1)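 Competitive binding assay across a 96-kinase panel with KIF18A compounds at 1 µM; values given as percentage of control (POC), single experiment.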

[2] = biological target: T1, FLT3 (Homo sapiens, UniProt P36888); test: biochemical; design: Eurofins DiscoverX kinase panel, competitive binding assay at 1 uM, percent of DMSO control; settings: competitive binding, percent of DMSO control
T1 sequence (P36888 1-993): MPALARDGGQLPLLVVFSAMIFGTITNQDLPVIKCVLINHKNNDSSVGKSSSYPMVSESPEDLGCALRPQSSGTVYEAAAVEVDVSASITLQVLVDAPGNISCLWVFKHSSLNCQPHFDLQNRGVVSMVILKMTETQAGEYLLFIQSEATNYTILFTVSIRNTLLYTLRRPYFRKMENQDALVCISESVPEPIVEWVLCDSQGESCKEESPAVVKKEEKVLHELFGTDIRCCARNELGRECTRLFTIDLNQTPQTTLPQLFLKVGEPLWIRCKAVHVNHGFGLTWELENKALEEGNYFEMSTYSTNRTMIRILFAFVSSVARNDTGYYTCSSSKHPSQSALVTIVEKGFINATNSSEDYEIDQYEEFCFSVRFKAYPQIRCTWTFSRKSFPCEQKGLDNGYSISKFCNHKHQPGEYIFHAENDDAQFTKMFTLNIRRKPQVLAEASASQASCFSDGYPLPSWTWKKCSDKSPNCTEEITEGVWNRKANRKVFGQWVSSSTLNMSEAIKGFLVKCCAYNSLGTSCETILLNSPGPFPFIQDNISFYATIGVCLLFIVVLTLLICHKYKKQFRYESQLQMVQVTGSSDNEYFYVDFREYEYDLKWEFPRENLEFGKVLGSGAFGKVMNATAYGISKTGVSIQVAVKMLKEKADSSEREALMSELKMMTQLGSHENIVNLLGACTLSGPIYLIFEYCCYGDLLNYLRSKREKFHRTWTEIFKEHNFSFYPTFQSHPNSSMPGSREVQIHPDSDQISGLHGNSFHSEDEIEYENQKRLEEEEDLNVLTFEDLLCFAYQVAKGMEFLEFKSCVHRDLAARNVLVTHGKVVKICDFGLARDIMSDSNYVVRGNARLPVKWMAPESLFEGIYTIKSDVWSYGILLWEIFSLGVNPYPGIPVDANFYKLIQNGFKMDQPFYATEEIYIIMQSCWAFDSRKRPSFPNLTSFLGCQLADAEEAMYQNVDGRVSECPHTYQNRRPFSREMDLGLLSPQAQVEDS
Method in brief: as §1

[3] = read-out: Kinome Profiling performed by Eurofins DiscoverX / AM-1882, 1.0 µM / POC
[4] = read-out: Kinome Profiling performed by Eurofins DiscoverX / AM-0277, 1.0 µM / POC
[5] = read-out: Kinome Profiling performed by Eurofins DiscoverX / AM-5308, 1.0 µM / POC

Sequence of TGFBR2 (P37173 whole entry): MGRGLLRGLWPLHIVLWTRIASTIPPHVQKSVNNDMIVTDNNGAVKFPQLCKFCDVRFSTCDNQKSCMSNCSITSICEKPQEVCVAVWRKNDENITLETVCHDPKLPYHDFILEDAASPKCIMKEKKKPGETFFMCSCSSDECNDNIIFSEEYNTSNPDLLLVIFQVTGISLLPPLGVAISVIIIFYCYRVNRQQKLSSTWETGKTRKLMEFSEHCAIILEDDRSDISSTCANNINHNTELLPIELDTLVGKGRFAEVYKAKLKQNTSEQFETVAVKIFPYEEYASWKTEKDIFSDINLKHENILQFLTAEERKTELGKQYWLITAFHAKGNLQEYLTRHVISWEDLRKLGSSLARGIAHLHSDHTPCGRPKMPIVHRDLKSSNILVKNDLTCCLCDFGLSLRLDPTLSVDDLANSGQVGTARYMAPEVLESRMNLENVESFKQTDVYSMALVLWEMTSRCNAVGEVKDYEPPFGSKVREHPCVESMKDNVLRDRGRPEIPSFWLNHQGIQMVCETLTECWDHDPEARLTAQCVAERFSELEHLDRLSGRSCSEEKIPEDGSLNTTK

SMILES: CC(C)(C)NS(=O)(=O)c1cccc(NC(=O)c2ccc(S(=O)(=O)NC(C)(C)C)cc2N2CCC3(CC2)CC3)c1 [AM-1882]
- remaining activity at 1 µM [1, 3]: 99.5%
- remaining activity at 1 µM [2, 3]: 88%

SMILES: CC(C)(CO)Nc1ccc(C(=O)Nc2cccc(S(=O)(=O)C3CCCC3)c2)c(N2CCC3(CC2)CC3)n1 [AM-0277]
- remaining activity at 1 µM [1, 4]: 75%
- remaining activity at 1 µM [2, 4]: 94%

SMILES: C[C@@H]1CN(c2cccc(NC(=O)c3ccc(NS(=O)(=O)CCO)cc3N3CCC4(CC3)CC4)n2)CCO1 [AM-5308]
- remaining activity at 1 µM [1, 5]: 100%
- remaining activity at 1 µM [2, 5]: 90.5%

From article PMC10824666 (Nature Cancer, 2023)
